Where two headings read alike, the source gives them in different places.
Tests used:
[1] = tested on: human placental vein discs; assay: Human placental vein angiogenesis model (HPVAM): initiation and angiogenic index; type: cell-based; details: for inhibition at 0.01 % strength: 0.01% w/v
Excerpt: The Human Placental Vein Angiogenesis Model: Discarded human placentas were obtained anonymously with prior approval of an Institutional Review Board. The placental veins were dissected free from the placenta and adventitial tissue. The trimmed vein segment was opened longitudinally to produce a flat film of venous tissue of full thickness. Vein discs (2 mm diameter) were created with a sterile skin punch (Miltex Instrument Company, Inc.; Lake Success, N.Y.). The discs were placed into wells of a standard 96-well plate (Corning Inc., Corning, N.Y.). The vein disc harvest was completed within three hours of delivery to optimize endothelial cell viability. Vein discs from a single placenta were distributed equally among all treatment groups to ensure randomization. Each well was preloaded with a human thrombin solution (0.05 IU in 2.0 μl), and allowed to evaporate to dryness before use. All chemicals were purchased from Sigma Chemical Company (St. Louis, Mo.) unless otherwise indicated.
Following the placement of the 2 mm vein disc in the bottom of each thrombin-containing well, the disc was covered with 100 μl of a clot-forming medium, comprising 3 mg/ml fibrinogen and 0.5% Σ-amino caproic acid dissolved in Human Placental Vein Angiogenesis Media (HPVAM). HPVAM is made of Medium 199 (Vitrogen Corporation, Carlsbad, Calif.), an antibiotic/antimycotic solution (100 U/ml penicillin, 100 U/ml streptomycin sulfate, and 0.25 μg/ml amphotericin(3; Vitrogen Corporation), and endothelial growth medium (25%) (Vitrogen Corporation). The mixture was allowed to clot by incubating in 5% CO2, 95% air at 37° C. in a humidified incubator. After the medium-containing placental discs had clotted, the vein-containing clot was supplemented with 100 μl HPVAM containing 20% fetal bovine serum (Vitrogen Corporation). The total well volume was 200 μl.
Evaluation of Angiogenesis: Visual evaluation of all wells was performed at 20× or 40× magnification with a standardized reference grid by an unbiased observer using an inverted microscope. Every other day, discs were graded using two criteria: the initiation of sprouting vessels (initiation) and the degree of sprouting (angiogenic index). Initiation of an angiogenic response was defined as the development of three or more vessel sprouts around the periphery of the vein disc. Initiation occurred in 50-95% of the wells, usually 4 to 6 days after establishment of the clots. Initiation was expressed as the percent of the total wells plated that indicated an angiogenic response.
The angiogenic index (AI) was defined using a subjective visual rating system. Each disc was visually rated for the development of vessel sprouting in each of four quadrants. Each of the four quadrants for each disc was rated on a 0-4 scale, depending on the number of sprouts (density) and the length of sprouts. Scores for all four quadrants were summed to express the AI, a numerical rating that could range from 0 to 16. A score of zero indicated no vessel growth in any of the four quadrants, while a score of 16 indicated long, dense angiogenic vessel growth in all four quadrants. For most experiments, the AI was expressed as a mean plus/minus a standard error of the mean.
To separate the process of initiation from that of proliferation, the AI was analyzed both with zero AI data points and without zero AI data points. […] This lack of initiation could have been due either to the effect of the experimental compound, to the insensitivity of the vein disc to stimulation in the culture conditions, or to the vein disc not being viable. In previous experiments, we have shown that only a small percent, about 2 to 3%, of vein discs are not viable (data not shown). Thus, a graph of AI with zero AI data points indicates the complete angiogenic response of initiation and growth under the experimental conditions. However, a graph of AI without the zero AI data points indicates only growth of the vessels after initiation. […]

[2] = tested on: human fat tissue; assay: Human fat tissue angiogenesis assay; type: cell-based; details: 0.01 M and 0.001 M, data not shown
Procedure: To test the angiogenic activity of plant extracts in another tissue, the refined fraction PUG100 was tested for its anti-angiogenic activity in human fat tissue taken from patients having gastric bypass surgery (Vista Surgical Hospital, Baton Rouge, La.). The human fat tissue assay was conducted very similar to that described in Example 1 for human placental vein tissue. […] (FIG. 25a). Immediately after the addition of the refined fraction PUG100, angiogenic vessel growth started to diverge. The control wells continued their growth, but the PUG100 treated wells stopped further growth. […] (Data not shown).

[3] = 5% gallic acid, oral, 13 wks; cited from earlier work
[4] = Homo sapiens, 336 h, 14 days in culture, FIG. 12a, read-out: inhibition of angiogenic initiation compared to the control
[5] = Homo sapiens, FIG. 12b, read-out: inhibition of angiogenesis compared with the control (mean AI with the zero points)
[6] = Homo sapiens, FIG. 12b, read-out: inhibition of angiogenic growth compared with the control (mean AI without the zero points)
[7] = highest concentration tested (2×10^−2M; octyl gallate 2×10^−3 M), FIG. 13a

Row | Structure (SMILES) | inhibition at 0.01 % strength [1, 4] | inhibition at 0.01 % strength [1, 5] | inhibition at 0.01 % strength [1, 6] | initiation of angiogenesis [1, 7] | further results
1 | CCCCOC(=O)c1cc(O)c(O)c(O)c1 [butyl gallate] | 85% | 96% | 74% | totally blocked | 
2 | O=C(O)c1cc(O)c(O)c(O)c1 [gallic acid, 3,4,5-trihydroxy benzoic acid] |  |  |  | totally blocked | initiation of angiogenesis ([1]; 0.025%, added after six days, FIG. 5a): totally inhibited; initiation of angiogenesis ([1]; 10^−3 M, FIG. 6a): totally inhibited; mean AI with the zero points included (initiation and proliferation) ([1]; 10^−3 M, FIG. 6b): totally inhibited angiogenesis; Percent initiation ([1]; 10^−4 M, FIG. 6a): 56%; Percent initiation ([1]; 10^−5 M, FIG. 6a): 50%; concentrations at which the inhibitory effect stopped (mean AI with zero points) ([1]; FIG. 6b): ≤ 10^−6 M; concentrations that showed inhibition (mean AI without the zero points, proliferation only) ([1]; FIG. 6c): greater than 10^−4 M; inhibition at 25 µM ([1]; Homo sapiens, read-out: estimated inhibition (IC19) if gallic acid were the only active compound, 2.5×10^−5 M): 19%; Percent initiation ([1]; up to 10^−10 M, FIG. 6a): 33%; initiation of angiogenesis [2]: inhibited initiation of angiogenesis; body weight gain [3]: suppress body weight gain
3 | COC(=O)c1cc(O)c(O)c(O)c1 [methyl gallate] | 38% | 71% | 52% |  | 
4 | CCCOC(=O)c1cc(O)c(O)c(O)c1 [propyl gallate] | 46% | 61% | 28% |  | 
5 | O=C(OC[C@H]1O[C@@H](OC(=O)c2cc(O)c(O)c(OC(=O)c3cc(O)c(O)c(O)c3)c2)[C@H](OC(=O)c2cc(O)c(O)c(OC(=O)c3cc(O)c(O)c(O)c3)c2)[C@@H](OC(=O)c2cc(O)c(O)c(OC(=O)c3cc(O)c(O)c(O)c3)c2)[C@@H]1OC(=O)c1cc(O)c(O)c(OC(=O)c2cc(O)c(O)c(O)c2)c1)c1cc(O)c(O)c(OC(=O)c2cc(O)c(O)c(O)c2)c1 [tannic acid, Tannic acid] |  |  |  |  | initiation of angiogenesis ([1]; 0.1% in HPVAM, FIG. 8a): inhibited the initiation of angiogenesis even better than the positive heparin-steroid control
6 | CCCCCCCCOC(=O)c1cc(O)c(O)c(O)c1 [octyl gallate] | 85% | 97% | 83% | totally blocked | lowest concentration indicating inhibition of angiogenesis [1]: 200 µM; initiation of angiogenesis ([1]; 2×10^−4 M, FIG. 13a): totally blocked; mean AI with the zero points included (initiation and proliferation) ([1]; 2×10^−4 M, FIG. 13b): effective
